These results are taken from article PMC11344848, “Proximity-driven site-specific cyclization of phage-displayed peptides” (Nature Communications, 2024).

Positions of bridges follow the written chain, without caps; N, C: chain ends. No end group written: not given here.

In one data set the test system is Ph1 phage particles. As to the kind of experiment: Phage infectivity studies (titre of infective phage after linker treatment). The conditions noted are these: Figure 4d; phage treated with DTT (1 mM) only. The protocol:
CCA: Ph1 phage particles (~ 10^11) were reduced with DTT (1 mM) for 30 min at 37 °C in a total volume of 95 µL. Linker CCA (final concentration = 150 µM) in DMSO (5% total volume) was added and the reaction was left to incubate for 2 h at room temperature. DBX: Ph1 phage particles (~ 10^11) were reduced with TCEP (1 mM) for 30 min at 37 °C in a total volume of 95 µL. Reduced Ph1 phage particles were buffer exchanged into NH4HCO3 (20 mM, pH 8.0) using Zeba™ Spin Desalting Columns (7 K MWCO, 0.5 mL) following the manufacturer’s instructions. Linker DBX (final concentration = 150 µM) in DMSO (5% total volume) was added and the reaction was left to incubate for 2 h at room temperature.
For each sample, two 100-fold dilutions in 2xTY were prepared. An aliquot (10 μL) of the 10^−4 dilution sample was added to TG1 E. coli (990 µL) grown to OD600nm = 0.6. After 1 h of infection at 37 °C and 150 RPM, four further 10-fold dilutions in 2xTY were prepared (10^−7 – 10^−10). Aliquots (100 µL) of dilution samples 10^−7 – 10^−10 were plated O/N on 2xTYAG agar at 37 °C. The next day, phage titres were calculated according to the equation.
Cfu/mL = [No. of colonies] x [Dilution factor] x [1/Volume plated (mL)].

For data set [1], the target named is T1, streptavidin (Streptomyces avidinii, UniProt P22629). As to the kind of experiment: Streptavidin-binding phage ELISA. To be noted: for Phage ELISA signal, Linear: Figure 6a, peptide linear (reduced using DTT), bound phage detected with anti-M13-HRP; for Phage ELISA signal, Linear / Phage ELISA signal, Lin: phage clone; for Phage ELISA signal, Lin: Figure 6b, peptide linear; for Binding to streptavidin in phage ELISA (in words): phage-displayed peptide, form as stated in the sentence (CCA replaced with linkers 1, 2, 3 or 4; CCA-cyclized negative control). The protocol: All incubation steps were performed at room temperature unless otherwise stated. A Pierce™ streptavidin-coated 96 well plate (Thermo Fisher Scientific) was treated O/N at 4 °C with biotinylated antigen (50 µL/well, 10 ng/µL in assay buffer). The next day, the plate was washed x3 with PBS to remove unbound antigen and incubated for 1 h with blocking buffer (300 µL/ well). At the same time, phage cultures (100 µL, ~ 10^10) were incubated for 1 h with blocking buffer (400 µL).
T1 sequence (P22629 25-183): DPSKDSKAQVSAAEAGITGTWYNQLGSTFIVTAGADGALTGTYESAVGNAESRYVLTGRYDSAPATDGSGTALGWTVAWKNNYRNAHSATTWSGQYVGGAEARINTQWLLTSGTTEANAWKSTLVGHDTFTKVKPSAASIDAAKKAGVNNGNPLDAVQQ
The 96-well plate was washed x3 with PBS and subsequently incubated with blocked phage (50 µL/ well) for 1 h. The plate was washed x3 with PBST, and bound phage was detected via the addition of anti-M13 HRP conjugated secondary antibody (50 µL/ well, 1/5000 dilution in blocking buffer, Abcam). After 1 h, the plate was washed x3 with PBST. HRP was developed using TMB substrate (50 µL/ well, Thermo Fisher Scientific), quenched after 5 min with H2SO4 (50 µL/ well, 0.5 M) and visualised at λ = […] using an EnVision Microplate Reader (PerkinElmer). Data was processed using SoftMax® Pro Software v7. […]
Biotinylated antigen = none required, assay buffer = N/A, blocking buffer = 3% (w/v) mPBS.

Data set [2] deals with T1, streptavidin. As to the kind of experiment: Sequencing of clones enriched after three rounds of selection of library L1-CCA against streptavidin. To be noted: clones sequenced after three rounds of selection against streptavidin. The protocol: Streptavidin-coated magnetic Dynabeads™ (50 μL/ selection, prewashed with 1 mL PBS) were blocked with 3% (w/v) mPBS (1 mL) for 1 h on a rotary mixer at room temperature and 20 RPM. L1 phage particles (~ 10^11) were reduced with DTT (1 mM) for 30 min at 37 °C in PBS (total reaction volume = 100 µL). The beads were pelleted on a magnetic stand and reduced L1 phage particles (~ 10^11) were added. After 1 h on a rotary mixer at room temperature and 20 RPM, the beads were pelleted and the supernatant was transferred to a fresh Eppendorf. Linker CCA (final concentration = 150 µM) in DMSO (5% total volume) was added and the reaction was left to incubate for 2 h at room temperature.
L1-CCA: Output phage from the negative streptavidin selection above.
L1-Red/ L1-CCA input phage (~ 10^11) and streptavidin-coated magnetic Dynabeads™ (50 μL/ selection, prewashed with 1 mL PBS) were incubated with 3% (w/v) mPBS (volume made up to 500 μL for phage, 1 mL for beads) for 1 h on a rotary mixer at room temperature and 20 RPM. The beads were pelleted on a magnetic stand and resuspended in 3% (w/v) mPBS (100 μL). An aliquot of the blocked beads (50 μL) was added to the blocked phage. The mixture was incubated for 1 h on a rotary mixer at room temperature and 20 RPM.
Using a Kingfisher mL apparatus, the beads were washed x5 with PBST (1 mL) and eluted into trypsin solution (10 µg/ mL trypsin in 0.1 M pH 7.0 sodium phosphate buffer, 200 µL). Trypsin digest was performed for 30 min at 37 °C and 600 RPM, the beads were pelleted and the supernatant was added to OD600nm = 0.6 TG1 E. coli (800 µL). After 1 h at 37 °C and 250 RPM, output titres were performed and the remaining cells were plated O/N on a 2xTYAG bioassay plate at 37 °C. The next day, the cells were harvested from the plate, as described below.

The target in data set [3] is T1, streptavidin. Nature of the data set: SPR binding of synthetic peptides to immobilised streptavidin (Biacore 8K). The conditions noted are these: synthetic peptide as disulphide-bonded entity, 25 °C, 4.1-9000 nM, HBS-EP+ pH 7.4. As for the experimental part:
The affinity of peptides Str1 and Str1-CCA to streptavidin was measured using the Biacore 8 K (GE Healthcare) at 25 °C.
For cyclization, peptide Str1 (5 mg, GL Biochem) was dissolved in PBS (20 mL) and treated with DTT (1.2 eq.) for 1 h at RT then linker CCA (2 eq.) for 3 h at RT. The reaction was purified by RP-HPLC and characterised by LC-MS to confirm the correct identity of the cyclized product, Str1-CCA. Str1 = 1351 Da and Str1-CCA = 1601 Da.
Streptavidin was covalently immobilised to a CM5 chip surface (Cytiva, BR100530, lot 10340325) using standard amine coupling techniques at a concentration of 16 µg/ml in 10 mM sodium acetate pH 4.5.
The peptides were serially diluted (4.1 – 9000 nM) in HBS-EP + buffer pH 7.4 and flowed over the chip at 30 µL/min, with 180 s association and 600 s dissociation. Multiple buffer-only injections were made under the same conditions to allow for double reference subtraction of the final sensorgram sets, which were analysed using Biacore 8 K Evaluation Software. Each experiment was repeated three times, which gave consistent results. Representative results are presented in the paper.
A general note: SPR reads the build-up and loss of mass on a sensor chip optically.

As for `O[C@@H](CS)[C@@H](O)CS` [DTT, reference compound], the Phage titre in the data set with Ph1 phage particles was 1.30E+11 Cfu/mL.

Turning to “CGGSGGC [negative control phage construct, reference compound]”, on streptavidin [1], the “Phage ELISA signal, Linear” value is reported as 0.052; the “Phage ELISA signal, Lin” value stood at 0.065; the “Binding to streptavidin in phage ELISA (in words)” value was “No binding”.

Take “CPFNFFIWNDEC [Str9, phage clone displaying streptavidin-selected peptide]”: at streptavidin [1], the “Phage ELISA signal, Linear” value came out at 0.315. In addition, on streptavidin [2], the “Abundance (Total = 96)” value is given as 2.

As to “CPFNIASPFYGC [Str6, phage clone displaying streptavidin-selected peptide]”, at streptavidin [1], the “Phage ELISA signal, Linear” value was 0.254. For the same molecule, the “Abundance (Total = 96)” value on streptavidin [2] worked out at 12.

Take “CPFNIKNPDDGC [Str2, phage clone displaying streptavidin-selected peptide]”: on streptavidin [1], the “Phage ELISA signal, Linear” value is 0.111. At streptavidin [2], the “Abundance (Total = 96)” value was determined as 7.

Turning to “CPFNILVPFIDC [Str4, phage clone displaying streptavidin-selected peptide]”, the “Phage ELISA signal, Linear” value on streptavidin [1] is on record as 0.254. For the same molecule, the “Abundance (Total = 96)” value at streptavidin [2] is listed as 5.

As to “CPINIFHPPPDC (disulfide 1-12 (inferred)) [Str1, streptavidin-selected peptide; tested as phage clone and as synthetic disulphide-bonded peptide]”, the “SPR signal (in words)” value on streptavidin [3] is listed as “no SPR signal observed”. In addition, the “Phage ELISA signal, Linear” value at streptavidin [1] came out at 0.115. The “Abundance (Total = 96)” value on streptavidin [2] is 42.

As for “CPINVQYSTGTC [Str7, phage clone displaying streptavidin-selected peptide]”, at streptavidin [1], the “Phage ELISA signal, Linear” value is 0.032; the “Phage ELISA signal, Lin” value is recorded as 0.106; the “Binding to streptavidin in phage ELISA (in words)” value is “no binding”. The “Abundance (Total = 96)” value on streptavidin [2] is 1.

As for CPTNTQYDLTIC, on streptavidin [2], the “Abundance (Total = 96)” value is on record as 4.

As for “CPYNIAGPPLYC [Str3, phage clone displaying streptavidin-selected peptide]”, the “Phage ELISA signal, Linear” value on streptavidin [1] is on record as 0.123. On streptavidin [2], the “Abundance (Total = 96)” value amounted to 13.

For “CPYNIINPTFDC [Str5, phage clone displaying streptavidin-selected peptide]”, on streptavidin [1], the “Phage ELISA signal, Linear” value was 0.096. For the same molecule, the “Abundance (Total = 96)” value on streptavidin [2] was found to be 8.

Consider “CPYNVERPDSHC [Str8, phage clone displaying streptavidin-selected peptide]”, for which, at streptavidin [1], the “Phage ELISA signal, Linear” value came to 0.029. In addition, on streptavidin [2], the “Abundance (Total = 96)” value is recorded as 2.

In the case of CWLNHPQAPPEC [reference compound], the “Phage ELISA signal, Linear” value at streptavidin [1] was found to be 1.437.
